Here are results for 1 compound from patent US6727244B2, “Mammalian metabolites of a tachykinin receptor antagonist” (Merck & Co., Inc., priority 2000, dated 2004).

For orientation: IC50 means the concentration at which inhibition is half-maximal. A lower IC50 goes with greater potency in that assay.

One data set has as its target T1, human NK1 receptor (Homo sapiens, UniProt P25103).
T1 construct: expressed in transfected cells
Kind of data set: human NK1 receptor binding assay (125I-substance P, COS or CHO cells). As for the experimental part:
To express the cloned human neurokinin-1 receptor (NKIR) transiently in COS, the cDNA for the human NKIR was cloned into the expression vector pCDM9 which was derived from pCDM8 (INVITROGEN) by inserting the ampicillin resistance gene (nucleotide 1973 to 2964 from BLUESCRIPT SK+) into the Sac II site. Transfection of 20 ug of the plasmid DNA into 10 million COS cells was achieved by electroporation in 800 ul of transfection buffer (135 mM NaCl, 1.2 mM CaCl2, 1.2 mM MgCl2, 2.4 mM K2HPO4, 0.6 mM KH2PO4, 10 mM glucose, 10 mM HEPES pH 7.4) at 260 V and 950 uF using the IBI GENEZAPPER (IBI, New Haven, Conn.). The cells were incubated in 10% fetal calf serum, 2 mM glutamine, 100U/ml penicillin-streptomycin, and 90% DMEM media (GIBCO, Grand Island, N.Y.) in 5% CO2 at 37° C. for three days before the binding assay.
To establish a stable cell line expressing the cloned human NK1R, the cDNA was subcloned into the vector pRcCMV (INVITROGEN). Transfection of 20 ug of the plasmid DNA into CHO cells was achieved by electroporation in 800 ul of transfection buffer suplemented with 0.625 mg/ml Herring sperm DNA at 300 V and 950 uF using the IBI GENEZAPPER (IBI). The transfected cells were incubated in CHO media [10 % fetal calf serum, 100 U/ml pennicilin-streptomycin, 2 mM glutamine, 1/500 hypoxanthine-thymidine (ATCC), 90% IMDM media (JRH BIOSClENCES, Lenexa, Kans.), 0.7 mg/ml G418 (GIBCO)] in 5% CO2 at 37° C. until colonies were visible. Each colony was separated and propagated. The cell clone with the highest number of human NK1R was selected for subsequent applications such as drug screening.
The binding assay of human NK1R expressed in either COS or CHO cells is based on the use of ^125I-substance P (^125I-SP, from DU PONT, Boston, Mass.) as a radioactively labeled ligand which competes with unlabeled substance P or any other ligand for binding to the human NK1R. Monolayer cell cultures of COS or CHO were dissociated by the non-enzymatic solution (SPECIALTY MEDIA, Lavallette, N.J.) and resuspended in appropriate volume of the binding buffer (50 mM Tris pH 7.5, 5 mM MnCl2, 150 mM NaCl, 0.04 mg/ml bacitracin, 0.004 mg/ml leupeptin, 0.2 mg/ml BSA, 0.01 mM phosphoramidon) such that 200 ul of the cell suspension would give rise to about 10,000 cpm of specific ^125I-SP binding (approximately 50,000 to 200,000 cells). […] The bound radioactivity was separated from unbound radioactivity by GF/C filter (BRANDEL, Gaithersburg, Md.) which was pre-wetted with 0.1 % polyethylenimine. The filter was washed with 3 ml of wash buffer (50 mM Tris pH 7.5, 5 mM MnCl2, 150 mM NaCl) three times and its radioactivity was determined by gamma counter.

Data set [1] in a line: oxidative metabolism in liver microsomes from humans. The data set is classed as in vitro ADME. The following applies: human liver microsomes, 15 min incubation. The method, then:
All liver microsomal and cytosolic fractions were prepared using the following procedure. Thawed livers were homogenized with 2 volumes of 50 mM Tris-buffer (pH 7.5) containing 1.15% KCl. For microsomal and cytosolic preparations, the homogenate was centrifuged for 20 min at 9,000×g and the resulting supernatant was centrifuged for 60 min at 105,000×g. The resulting cytosolic fractions were re-centrifuged at 105,000×g for 60 min. Fractions of cytosol were aliquoted into small tubes and stored at −70° C. Subsequently, the microsomal pellets were washed with 10 mM EDTA containing 1.15% KCl and were centrifuged at 105,000×g for 60 min. Washed microsomes were resuspended in 10 mM potassium phosphate buffer (pH 7.4) containing 250 mM sucrose, aliquoted into small tubes, and stored at −70° C. Protein concentrations were determined by a modified Lowry assay (Smith et al., 1985). The specific cytochrome P450 content in each microsomal preparation was measured as described by Omura and Sato, J. Biol. Chem. 239, 2370-2378 (1964). […]
Method A was conducted on a Shimadzu HPLC system (Shimadzu Scientific Instruments Inc., Columbia Md.). The parent compounds and their metabolites were monitored directly using a radiometric detector (INUS Systems Inc. Tampa, Fla.) and Ultima-Flow M (Packard Instrument Co., Meridan Conn.) as scintillant at a flow rate of 3 mL/min. […]
(Liver microsomes are a subcellular fraction often used to study metabolism.)

T1 sequence (P25103 whole entry): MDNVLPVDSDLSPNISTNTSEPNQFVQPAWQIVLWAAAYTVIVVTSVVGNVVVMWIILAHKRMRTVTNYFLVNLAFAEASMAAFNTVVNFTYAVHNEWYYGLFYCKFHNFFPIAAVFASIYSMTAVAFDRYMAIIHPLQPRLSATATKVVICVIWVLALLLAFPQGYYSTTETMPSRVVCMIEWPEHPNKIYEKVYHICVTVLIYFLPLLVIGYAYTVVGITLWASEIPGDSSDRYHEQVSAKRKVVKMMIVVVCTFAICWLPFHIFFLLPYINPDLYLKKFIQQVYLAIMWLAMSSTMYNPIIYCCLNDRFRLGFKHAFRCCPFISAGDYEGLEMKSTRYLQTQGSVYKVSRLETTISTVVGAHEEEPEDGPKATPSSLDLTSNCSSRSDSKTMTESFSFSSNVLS

On to `C[C@@H](O[C@H]1OCCN[C@H]1c1ccc(F)cc1)c1cc(C(F)(F)F)cc(C(F)(F)F)c1` [Metabolite M-1, (2R,3S)-2-[(1R)-1-[3,5-bis(trifluoromethyl)phenyl]ethoxy]-3-(4-fluorophenyl)morpholine], for which the IC50 at human NK1 receptor amounted to 1 nM. In addition, in data set [1], the “parent compound remained after incubation” value is recorded as around 50%.
